The source of these data is EP4692094A1 (Beijing Konruns Pharmaceutical Co., Ltd., priority 2023, dated 2024).

The AUC(0-inf) is total exposure, with the tail of the curve extrapolated. A high value points to more exposure. As usually defined, the Cmax is the highest concentration seen after dosing. Usually Tmax stands for the time from dosing to the highest level. The half-life is how long it takes for the measured level to halve. High values mean slow decline, low ones rapid decline. As a reminder, the inhibition is the change of the read-out against control, counted positive when it falls.

Like-named read-outs stand apart in the source and are kept apart here.

A short description of data set [1]: In-vivo pharmacokinetic study in beagle dogs. Also on record: species or system male beagle dogs. The conditions noted are these: dog, plasma, po, intragastric administration. How it is done: 1.1 Instrument: high-performance liquid chromatograph: SHIMADZU LC-30AD; mass spectrum: AB SCIEX mass spectrometer Triple Quad 5500; all measured data were calculated and processed using Microsoft Excel, and relevant pharmacokinetic parameters were calculated using WinNonlin software. […] Chromatographic column: Agilent EC-C18 2.7 µm (50 × 2.1 mm); column temperature: 40 °C; mobile phase A: water (0.1% formic acid); mobile phase B: acetonitrile; flow rate: 0.60 mL/min; gradient elution; elution gradient: 0.30 min: 5% B; 1.90 min: 95% B; 2.20 min: 95% B; 2.21 min: 5% B; 2.50 min: stop. Sample injection amount: 10 µL.
1.2 Animals: 3 male beagle dogs were used. The body weight range was 8-15 kg. The beagle dogs were fasted 12 h before administration and 4 h after administration, and given ad libitum access to water during the assay.
1.3 Vehicle: 0.5% HPMC (hydroxypropyl methylcellulose) + 0.4% Tween80 + 99.1% water.
After the intragastric administration, blood samples were taken at 0.25 h, 0.5 h, 1 h, 2 h, 4 h, 6 h, 8 h, 10 h, 12 h, 24 h, and 48 h. The blood collection mode is as follows: venipuncture was used, EDTA-K2 was used as an anticoagulation agent, the collected blood sample was transferred into a microcentrifuge tube containing the anticoagulation agent, and the tube was centrifuged at 4 °C and 2000 g for 10 min to separate the plasma. All plasma samples collected were stored at -75±15 °C until analysis.
1.4 Plasma sample pretreatment: 50 µL of the plasma sample was taken, and 200 µL of an internal standard solution prepared with acetonitrile was added for precipitation; subsequently, the sample was vortexed for 1 min and mixed homogenously; the precipitated sample was centrifuged at 4 °C and 3900 rpm for 15 min; the supernatant was pipetted, and water was added for 3-fold dilution; 10 µL of the sample was injected; and quantitative analysis was performed by adopting a liquid chromatography-mass spectrometry technology.
All measured data were collected and processed by the relevant software, and pharmacokinetic parameters were calculated using Winnonlin software. Pharmacokinetic parameters of some compounds in the examples in beagle dogs

The subject of another data set is CYP3A. In words: Inhibitory effect on P450 enzymes in vitro (human liver microsomes), CYP3A. The format is in vitro ADME. The note with it: final concentration 10 µM; for inhibition at 5 min, 10 µM: probe midazolam, substrate midazolam, read-out: % inhibition rate CYP3A (midazolam); for inhibition at 10 min, 10 µM: probe testosterone, substrate testosterone, read-out: % inhibition rate CYP3A (testosterone). The method, then: (§1) 1.1 Preparation of compounds: The compounds prepared in the examples were each dissolved in dimethylsulfoxide to give solutions at a concentration of 2 mmol/L.
(§2) 1.2 Test methods: • 1) Incubation system: human liver microsomes, a MgCl2 solution, a phosphate buffer solution, and a substrate solution were each added a 96-well deep-well plate and mixed homogenously. In the final incubation system, the concentration of the human liver microsomes was 0.2 mg/mL, and the final concentrations of the MgCl2 solution and the phosphate buffer solution were 5 mM and 100 mM, respectively. • 2) 1 µL of the substrate solution was added to the incubation system, and the final concentrations of CYP1A2 phenacetin, 2C8 paclitaxel […], 2C19 mephenytoin, 2D6 midazolam, and 3A midazolam substrates were 40 µM (phenacetin), 5 µM (paclitaxel), 50 µM (mephenytoin), 10 µM (mephenytoin), 5 µM (midazolam), and 50 µM […], respectively. • 3) 1 µL of the example compound or vehicle (DMSO) was added to the incubation system, and the incubation system was pre-warmed for 5 min in a 37 °C water bath before starting the reaction with 20 µL of 10 mM NADPH solution.
(§3) 1.3 Sample treatment: Within the designated time (20 min for phenacetin, 10 min for paclitaxel, 20 min for mephenytoin, 20 min for dextromethorphan, 5 min for midazolam, and 10 min for testosterone), 400 µL of methanol containing the internal standard was added to terminate the reaction, and the mixture was vortexed and mixed homogeneously. Then, the deep-well plate was centrifuged at 3220 g and 4 °C for 40 min. 100 µL of the supernatant was transferred into a new plate, and 150 µL of purified water was added. The mixture was mixed homogenously for LC-MS/MS analysis. Table 11. Inhibitory effects of some compounds in the examples on CYP enzymes

For a further data set, the target named is T1, CYP1A2 (Homo sapiens, UniProt P05177).
T1 construct: from tissue; host or cells: human liver microsomes
T1 sequence (P05177 1-516): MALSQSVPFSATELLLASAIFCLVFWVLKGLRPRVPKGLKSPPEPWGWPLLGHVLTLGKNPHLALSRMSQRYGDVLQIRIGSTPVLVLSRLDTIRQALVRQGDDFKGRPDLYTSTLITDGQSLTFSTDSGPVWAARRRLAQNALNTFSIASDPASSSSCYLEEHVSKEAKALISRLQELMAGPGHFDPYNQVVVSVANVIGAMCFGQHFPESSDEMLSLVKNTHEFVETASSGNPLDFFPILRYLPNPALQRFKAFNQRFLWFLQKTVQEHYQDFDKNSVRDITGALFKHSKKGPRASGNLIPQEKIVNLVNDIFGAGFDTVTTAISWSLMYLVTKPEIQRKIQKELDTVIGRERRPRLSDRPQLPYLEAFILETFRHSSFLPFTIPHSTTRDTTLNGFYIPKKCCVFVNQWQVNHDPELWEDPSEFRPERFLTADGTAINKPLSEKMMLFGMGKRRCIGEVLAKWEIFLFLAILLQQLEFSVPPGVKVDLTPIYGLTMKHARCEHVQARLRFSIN
Nature of the data set: Inhibitory effect on P450 enzymes in vitro (human liver microsomes), CYP1A2. The class given is in vitro ADME. The conditions noted are these: probe phenacetin, final concentration 10 µM, substrate phenacetin, read-out: % inhibition rate CYP1A2 (phenacetin). How it is done: as §1, §2, §3
For orientation: Liver microsomes are a subcellular fraction often used to study metabolism.

Setting [2] is: male, 1 mg/kg, read-out: AUC0-48h.

Take `COc1cc2c(cc1S(=O)(=O)Nc1noc3cc(Cn4cccn4)nc(OC)c13)CCCO2` [Example 76, N-(6-((1H-Pyrazol-1-yl)methyl)-4-methoxyisoxazolo[4,5-c]pyridin-3-yl)-7-methoxy-3,4-dihydro-1H-benzopyran-6-sulfonamide]: in data set [1] (1 mg/kg), the AUC(0-inf) is 749000 ng·h/mL, the peak concentration (Cmax) is 14000 ng/mL, the Tmax was found to be 2 h and the half-life was 45.4 h. Moreover, the AUC(0-t) at 48 h in data set [1] (1 mg/kg, read-out: AUC0-48h) is 225000 ng·h/mL.
Consider `COc1cc2c(cc1S(=O)(=O)Nc1noc3cc(Cn4cccn4)nc(OC)c13)OCC2` [Example 59, N-(6-((1H-Pyrazol-1-yl)methyl)-4-methoxyisoxazolo[4,5-c]pyridin-3-yl)-5-methoxy-2,3-dihydrobenzofuran-6-sulfonamide], for which, in the data set on CYP3A, the inhibition at 5 min, 10 µM is -12.1% and the inhibition at 10 min, 10 µM is -7.66%. In addition, the inhibition at 20 min, 10 µM at CYP1A2 was found to be 1.93%. For the same molecule, the half-life in data set [1] (male, beagle, 1 mg/kg) is at most 15 h. Also, in data set [1] (male, 1 mg/kg), the AUC(0-inf) came to 55900 ng·h/mL, the Cmax amounted to 8380 ng/mL and the Tmax was found to be 0.67 h. Besides, the AUC(0-t) in data set [1] (setting [2]) amounted to 55500 ng·h/mL.
With `COc1cc2c(cc1S(=O)(=O)Nc1noc3cc(Cn4cccn4)nc(OC)c13)CCCC2` [Example 2, N-(6-((1H-Pyrazol-1-yl)methyl)-4-methoxyisoxazolo[4,5-c]pyridin-3-yl)-3-methoxy-5,6,7,8-tetrahydronaphthalene-2-sulfonamide], in the data set with CYP3A, the inhibition at 5 min, 10 µM is -5.22% and the inhibition at 10 min, 10 µM was determined as 5.84%. In addition, the inhibition at 20 min, 10 µM on CYP1A2 is 6.02%. For the same molecule, in data set [1] (male, beagle, 0.6 mg/kg), the half-life was 173 h. In addition, in data set [1] (male, 0.6 mg/kg), the AUC(0-inf) came out at 379000 ng·h/mL, the Cmax was determined as 1800 ng/mL and the Tmax came to 4 h. In addition, in data set [1] (male, 0.6 mg/kg, read-out: AUC0-48h), the AUC(0-t) is 66500 ng·h/mL.
In the case of `COc1ccc2ccoc2c1S(=O)(=O)Nc1noc2cc(Cn3cccn3)nc(OC)c12` [Example 10, N-(6-((1H-Pyrazol-1-yl)methyl)-4-methoxyisoxazolo[4,5-c]pyridin-3-yl)-6-methoxybenzofuran-7-sulfonamide], in the data set on CYP3A, the inhibition at 5 min, 10 µM is -4.28% and the inhibition at 10 min, 10 µM was -2.93%. For the same molecule, the inhibition at 20 min, 10 µM on CYP1A2 was -1.78%. In data set [1] (male, beagle, 1 mg/kg), this molecule yielded a half-life of at most 15 h. Also, in data set [1] (male, 1 mg/kg), the area under the curve AUC(0-inf) is 47500 ng·h/mL, the Cmax was determined as 6250 ng/mL and the time to peak (Tmax) came to 0.83 h. In data set [1] (setting [2]), the AUC(0-t) stood at 46700 ng·h/mL.
Molecule `COc1ccc2c(c1S(=O)(=O)Nc1noc3cc(Cn4cccn4)nc(OC)c13)OCC2` [Example 9, N-(6-((1H-Pyrazol-1-yl)methyl)-4-methoxyisoxazolo[4,5-c]pyridin-3-yl)-6-methoxy-2,3-dihydrobenzofuran-7-sulfonamide] registered a half-life in data set [1] (male, beagle, 1 mg/kg) of at most 15 h. In data set [1] (male, 1 mg/kg), the AUC(0-inf) was found to be 122000 ng·h/mL, the peak level (Cmax) was 9230 ng/mL and the Tmax was 1.33 h. For the same molecule, the AUC(0-t) in data set [1] (setting [2]) amounted to 114000 ng·h/mL.
